According to ChEMBL document CHEMBL4011592, “Synthesis and evaluation of 7-substituted-5,6-dihydrobenzo[c]acridine derivatives as new c-KIT promoter G-quadruplex binding ligands” (Eur J Med Chem, 2017):
One block for each compound: values may come before it. Activity calls are given as the source filed them. No cut-off for these calls is given here.

How the values were obtained:
Homo sapiens [1] = organism: Homo sapiens; assay: Binding affinity to c-KIT G-quadruplex DNA in human K562 cells assessed as reduction in c-KIT mRNA level at 0.5 uM after 48 hrs by RT-PCR analysis; assay type: cell-based
[2] = Binding affinity to c-KIT2 G-quadruplex DNA (unknown origin) assessed as ability to promote c-KIT G-rich sequences to form parallel G-quadruplex at 25 uM in absence of KCl measured after 10 mins by CD-spectroscopic analysis
[3] = Binding affinity to 5'-FAM/3'-TAMARA labelled c-KIT1 G-quadruplex DNA (unknown origin) assessed as change in melting temperature at 2 uM by FRET assay
[4] = Binding affinity to F10T duplex DNA (unknown origin) assessed as change in melting temperature at 2 uM by FRET assay
[5] = Binding affinity to 5'-FAM/3'-TAMARA labelled c-KIT1 G-quadruplex DNA (unknown origin) assessed as change in melting temperature at 1 uM by FRET assay
[6] = Binding affinity to 5'-FAM/3'-TAMARA labelled c-KIT2 G-quadruplex DNA (unknown origin) assessed as change in melting temperature at 1 uM by FRET assay
[7] = Binding affinity to F10T duplex DNA (unknown origin) assessed as change in melting temperature at 1 uM by FRET assay
[8] = Binding affinity to 5'-FAM/3'-TAMARA labelled c-KIT1 G-quadruplex DNA (unknown origin) assessed as change in melting temperature at 2 uM in presence ds26 DNA by FRET assay
[9] = Binding affinity to biotinylated c-KIT1 G-quadruplex DNA (unknown origin) by SPR assay
[10] = Binding affinity to biotinylated duplex DNA (unknown origin) by SPR assay
[11] = Selectivity ratio of Kd for biotinylated duplex DNA (unknown origin) to Kd for biotinylated c-KIT1 G-quadruplex DNA (unknown origin)
[12] = Binding affinity to 5'-FAM labelled c-KIT1 G-quadruplex DNA (unknown origin) by microscale thermophoresis
[13] = Binding affinity to 5'-FAM labelled duplex DNA (unknown origin) by microscale thermophoresis
[14] = Binding affinity to c-KIT1 G-quadruplex DNA (unknown origin) assessed as ability to promote c-KIT G-rich sequences to form parallel G-quadruplex at 25 uM in absence of KCl measured after 10 mins by CD-spectroscopic analysis
[15] = Binding affinity to c-KIT1 G-quadruplex DNA (unknown origin) assessed as maintainance of parallel c-KIT G-quadruplex conformation at 5 uM in presence of KCl measured after 10 mins by CD-spectroscopic analysis
[16] = Binding affinity to c-KIT2 G-quadruplex DNA (unknown origin) assessed as maintainance of parallel c-KIT G-quadruplex conformation at 5 uM in presence of KCl measured after 10 mins by CD-spectroscopic analysis
[17] = Binding affinity to c-KIT1 G-quadruplex DNA (unknown origin) assessed as hyperchromicity at 10 uM measured after 10 mins by UV-vis spectroscopic method
[18] = Binding affinity to c-KIT1 G-quadruplex DNA (unknown origin) assessed as red shift at 10 uM measured after 10 mins by UV-vis spectroscopic method
[19] = Binding affinity to c-KIT1 G-quadruplex DNA (unknown origin) assessed as isosbestic point at 10 uM measured after 10 mins by UV-vis spectroscopic method
[20] = Binding affinity to c-KIT1 G-quadruplex DNA (unknown origin) measured after 10 mins by UV-vis spectroscopic method
[21] = Binding affinity to c-KIT1 G-quadruplex DNA (unknown origin) assessed as hyperchromicity at 5 uM measured after 10 mins by fluorescence spectroscopic method
[22] = Binding affinity to c-KIT1 G-quadruplex DNA (unknown origin) assessed as 1:1 binding stoichiometry between compound and G-quadruplex DNA by Job's plot method
[23] = Binding affinity to c-KIT1 G-quadruplex DNA (unknown origin) assessed as 1:1 binding stoichiometry between compound and G-quadruplex DNA 10 uM by ESI-MS spectra analysis
K562 [24] = assay: Cytotoxicity against human K562 cells after 48 hrs by MTT assay; assay type: functional, cell-based; conditions: K562, 48 h
A549 = assay: Cytotoxicity against human A549 cells after 48 hrs by MTT assay; assay type: functional, cell-based; conditions: A549, 48 h
HeLa = assay: Cytotoxicity against human HeLa cells after 48 hrs by MTT assay; assay type: functional, cell-based
BJ = assay: Cytotoxicity against human BJ cells after 48 hrs by MTT assay; assay type: cell-based
K562 [25] = assay: Induction of apoptosis in human K562 cells assessed as late apoptotic cells at 1 uM after 48 hrs by flow cytometric method (reference value: 0.1 %); assay type: functional
K562 [26] = assay: Cytotoxicity against human K562 cells expressing c-KIT measured up to 3 days by Annexin V-FITC/propidium iodide staining based assay; assay type: functional, cell-based
K562 [27] = assay: Induction of apoptosis in human K562 cells assessed as late apoptotic cells at 3 uM after 48 hrs by flow cytometric method (reference value: 0.1 %); assay type: functional
K562 [28] = assay: Induction of apoptosis in human K562 cells assessed as late apoptotic cells at 6 uM after 48 hrs by flow cytometric method (reference value: 0.1 %); assay type: functional
K562 [29] = assay: Induction of apoptosis in human K562 cells assessed as late apoptotic cells at 9 uM after 48 hrs by flow cytometric method (reference value: 0.1 %); assay type: functional
K562 [30] = assay: Induction of apoptosis in human K562 cells assessed as increase in late apoptotic cells after 48 hrs by flow cytometric method; assay type: functional, cell-based
Homo sapiens [31] = organism: Homo sapiens; assay: Binding affinity to c-KIT G-quadruplex DNA in human K562 cells assessed as reduction in c-KIT mRNA level after 48 hrs by RT-PCR analysis; assay type: cell-based
Homo sapiens [32] = organism: Homo sapiens; assay: Binding affinity to c-KIT G-quadruplex DNA in human K562 cells assessed as reduction in c-KIT mRNA level at 9 uM after 48 hrs by RT-PCR analysis relative to control; assay type: cell-based; parameters: scale not given: the % may be the effect or the level left
Homo sapiens [33] = organism: Homo sapiens; assay: Binding affinity to c-KIT G-quadruplex DNA in human K562 cells assessed as reduction in c-KIT protein level after 48 hrs by Western blot analysis; assay type: cell-based
K562 [34] = assay: Effect on total c-KIT protein level in human K562 cells at 9 uM after 48 hrs by Western blot analysis; assay type: ADME, cell-based; conditions: k562, 48 h
K562 [35] = assay: Induction of apoptosis in human K562 cells assessed as increase in cleaved PARP level at 1 to 9 uM after 48 hrs by Western blot analysis; assay type: functional, cell-based
K562 [36] = assay: Induction of apoptosis in human K562 cells assessed as upregulation of cleaved caspase-3 at 1 to 9 uM after 48 hrs by Western blot analysis; assay type: functional, cell-based
K562 [37] = assay: Induction of apoptosis in human K562 cells assessed as increase in Bax expression after 48 hrs by Western blot analysis; assay type: functional, cell-based
K562 [38] = assay: Induction of apoptosis in human K562 cells assessed as increase in Bad expression after 48 hrs by Western blot analysis; assay type: functional, cell-based
K562 [39] = assay: Induction of apoptosis in human K562 cells assessed as decrease in Bcl-2 expression at 1 to 9 uM after 48 hrs by Western blot analysis; assay type: functional, cell-based

SMILES: Cc1ccc(NC(=O)c2ccc(CN3CCN(C)CC3)cc2)cc1Nc1nccc(-c2cccnc2)n1
- Activity (Homo sapiens [1]): inactive

- Activity [2]: Active
- ΔTm [3]: 15.9 °C
- ΔTm [4]: 1.2 °C
- ΔTm [5]: 11.9 °C
- ΔTm [6]: 5.4 °C
- ΔTm [7]: 0.6 °C
- Activity [8]: Active
- Kd [9]: 4.7 µM
- Kd [10]: > 20 µM
- Selectivity ratio [11]: > 4.3
- Kd [12]: 1.5 µM
- Kd [13]: 10.5 µM
- Activity [14]: Active
- Activity [15]: Active
- Activity [16]: Active
- Activity [17]: Active
- Activity [18]: Active
- Activity [19]: Active
- Kd [20]: 3.3 µM
- Activity [21]: Active
- Activity [22]: Active
- Activity [23]: Active
SMILES: CCN(CC)CCCNc1c2c(nc3ccccc13)-c1cc(OC)c(OC)cc1CC2
- IC50 (K562 [24]): 9.2 µM
- IC50 (A549): 5.7 µM
- IC50 (HeLa): 3.2 µM
- IC50 (BJ): 29.4 µM
- Activity (K562 [25]): 1.8%
- Activity (K562 [26]): Dose-dependent effect
- Activity (K562 [27]): 3.6%
- Activity (K562 [28]): 8.4%
- Activity (K562 [29]): 64.8%
- Activity (K562 [30]): Dose-dependent effect
- Activity (Homo sapiens [31]): Dose-dependent effect
- Activity (Homo sapiens [32]): 52%
- Activity (Homo sapiens [33]): Dose-dependent effect
- Activity (K562 [34]): Non-Toxic
- Activity (K562 [35]): Active
- Activity (K562 [36]): Active
- Activity (K562 [37]): Dose-dependent effect
- Activity (K562 [38]): Dose-dependent effect
- Activity (K562 [39]): Active
